From US10011614B2, “Bis-β-carboline compound and preparation method, pharmaceutical composition and use thereof” (XINJIANG HUASHIDAN PHARMACEUTICAL RESEARCH CO., LTD., priority 2012, dated 2018)

What was measured:
[1] = system: 769-P (human renal carcinoma cells); assay: Antitumor screening in vitro, MTT assay, 769-P; assay type: cell-based; conditions: 48 hours, 769-P cells
Description: (§1) Cell lines: BGC (human gastric cancer cells), A375 (human malignant melanoma cells), 769-P (human renal carcinoma cells), KB (human oral epidermoid carcinoma cells), SK-OV-3 (human ovarian cancer cells), etc, were selected, and the test method was the MTT assay. Cisplatin was as a positive control.
(§2) Specific methods are as follows: cells growing well in the logarithmic phase were seeded in 96-well plates at a concentration of 1×10^4 cells/ml, and then were placed in 37° C., containing 5% CO2 incubator for 24 hours. After discarding the old solution, changed fresh medium, and added sterilization treatment compound, and then cultured for 48 hours. After discarding the culture medium, 20 ul RPMI1640 medium containing 5 mg/ml MTT were added to each well in 96-well plates and cells were cultured for 4 hours. After the supernatant was carefully removed, 100 μl DMSO was added to each well, and the plates were Oscillated about 10 min to dissolve the precipitate, followed by detecting OD value in wavelength 490 nm by the microplate reader. Cell survival rate for each sample concentrations was determined by the following formula: The mean survival rate %=the average OD value of sample group/the average OD value of control group×100%
(§3) Morphological studies by mapping with the logarithm of the drug concentration and the mean survival rate % of each sample to obtain IC50 values for each sample.

[2] = system: KB (human oral epidermoid carcinoma cells); assay: Antitumor screening in vitro, MTT assay, KB; assay type: cell-based; conditions: 48 hours
Description: as §1, §2, §3

[3] = system: SK-OV-3 (human ovarian cancer cells); assay: Antitumor screening in vitro, MTT assay, SK-OV-3; assay type: cell-based; conditions: 48 hours, SK-OV-3 cells
Description: as §1, §2, §3

[4] = system: BGC (human gastric cancer cells); assay: Antitumor screening in vitro, MTT assay, BGC; assay type: cell-based; conditions: 48 hours
Description: as §1, §2, §3

[5] = system: A375 (human malignant melanoma cells); assay: Antitumor screening in vitro, MTT assay, A375; assay type: cell-based
Description: as §1, §2, §3

IC50 [1] [µM] | IC50 [2] [µM] | IC50 [3] [µM] | IC50 [4] [µM] | IC50 ([5]; 48 hours) [µM] | IC50 ([1]; Homo sapiens) [µM] | IC50 ([2]; Homo sapiens) [µM] | melting point [°C] | IC50 ([3]; Homo sapiens) [µM] | IC50 ([4]; Homo sapiens) [µM] | IC50 ([5]; Homo sapiens, A-375, 48 hours) [µM] | Structure (SMILES)
> 300 | > 300 | > 300 | > 300 | 23.2 |  |  |  |  |  |  | Clc1ccccc1-c1nccc2c3ccccc3n(CCCCCCn3c4ccccc4c4ccnc(-c5ccccc5Cl)c43)c12 [Compound 35]
3.3 | 7.6 | > 300 | > 300 | 4 |  |  |  |  |  |  | COc1cc(-c2nccc3c4ccccc4n(CCCCCCCn4c5ccccc5c5ccnc(-c6cc(OC)c(OC)c(OC)c6)c54)c23)cc(OC)c1OC [Compound 20, 1,7-bis[1-(3,4,5-trimethoxy)phenyl-β-carboline-9-yl) heptane]
 |  |  |  |  | 145 | 160 | 239 to 240 | 26.4 | 252 | 69.5 | Cc1nccc2c3ccccc3n(CCCn3c4ccccc4c4ccnc(C)c43)c12 [Compound 6, 1,3-bis (1-methyl-β-carboline-9-yl) propane]
 |  |  |  |  | 18.5 | 253 | 241 to 242 | 31.8 | > 300 | 53.5 | CC(C)c1nccc2c3ccccc3n(CCCCCCn3c4ccccc4c4ccnc(C(C)C)c43)c12 [Compound 39, 1,6-bis(1-isopropyl-β-carboline-9-yl) hexane]
 |  |  |  |  | 12.8 | 13.9 |  | 38.9 | 13.8 | 10.8 | c1ccc2c(c1)c1ccncc1n2CCCCCCn1c2ccccc2c2ccncc21 [Compound 3, 1,6-bis(β-carboline-9-yl) hexane]
 |  |  |  |  | 16.2 | > 300 | 152 to 154 | 8.5 | > 300 | > 300 | Cc1nccc2c3ccccc3n(CCCCCCCCCCn3c4ccccc4c4ccnc(C)c43)c12 [Compound 13, 1,10-bis(1-methyl-β-carboline-9-yl) decane]
 |  |  |  |  | 4.3 | > 300 | 208 to 209 | > 300 | > 300 | > 300 | Cc1nccc2c3cc(Br)ccc3n(CCCCC(C)n3c4ccc(Br)cc4c4ccnc(C)c43)c12 (stereo not drawn) [Compound 21, 1,5-bis(6-bromo-1-methyl-β-carboline-9-yl) hexane]
53 | > 300 | 212 | > 300 | 286 |  |  |  |  |  |  | c1ccc2c(c1)c1ccncc1n2CCCCCCCn1c2ccccc2c2ccncc21 [Compound 4, 1,7-bis(11-carboline-9-yl) heptane]
 |  |  |  |  | 95.4 | 19.8 |  | 17.1 | 194 | 18.5 | Cc1nccc2c3ccc(OC(C)C)cc3n(CCCCCCn3c4cc(OC(C)C)ccc4c4ccnc(C)c43)c12 [Compound 25, 1,6-bis(7-isopropoxy-1-methyl-β-carboline-9-yl) hexane]
 |  |  |  |  | 114 | 38.6 |  | 10.2 | 104 | 113 | COc1ccc2c3ccnc(C)c3n(CCCCCCCC(C)n3c4cc(OC)ccc4c4ccnc(C)c43)c2c1 (stereo not drawn) [Compound 18, 1,8-bis(7-methoxy-1-methyl-β-carboline-9-yl) nonane]
 |  |  |  |  | 3.1 | > 300 |  | 8.9 | > 300 | > 300 | Brc1ccc2c(c1)c1ccncc1n2CCCCn1c2ccc(Br)cc2c2ccncc21 [Compound 41, 1,4-bis[6-bromo-βcarboline-9-yl) butane]
44.6 | > 300 | > 300 | > 300 | 218 |  |  |  |  |  |  | CCOC(=O)c1cc2c3ccccc3n(CCCCCCCCCn3c4ccccc4c4cc(C(=O)OCC)nc(-c5cc(OC)c(OC)c(OC)c5)c43)c2c(-c2cc(OC)c(OC)c(OC)c2)n1 [Compound 28, 1,9-bis[1-(3,4.5-trimethoxy)phenyl-β-carboline-3-ethyoxylcarbonyl-9-yl]nonane]
3.8 | > 300 | > 300 | > 300 | 7 |  |  |  |  |  |  | O=[N+]([O-])c1ccc(Cl)c(-c2nccc3c4ccccc4n(CCCCCCn4c5ccccc5c5ccnc(-c6cc([N+](=O)[O-])ccc6Cl)c54)c23)c1 [Compound 37, 1,6-bis[1-(2-chloro-5-nitro-phenyl)-⊕-carboline-9-yl) hexane]
 |  |  |  |  | > 300 | 13.3 |  | 14.9 | 14.1 | 5.3 | c1cncc(-c2nccc3c4ccccc4n(CCCCCCn4c5ccccc5c5ccnc(-c6cccnc6)c54)c23)c1 [Compound 32, 1,6-bis[1-(pyridine-3-yl)-β-carboline-9-yl) hexane]
 |  |  |  |  | 82.1 | > 300 |  | > 300 | > 300 | 10.4 | Clc1ccccc1-c1nccc2c3ccccc3n(CCCCCCCn3c4ccccc4c4ccnc(-c5ccccc5Cl)c43)c12 [Compound 36, 1,7-bis[1-(2-chlorophenyl)-β-carboline-9-yl) heptane]
 |  |  |  |  | 15.3 | > 300 |  | > 300 | 23.5 | 10.2 | c1ccc2c(c1)c1ccncc1n2CCCCCn1c2ccccc2c2ccncc21 [Compound 2, 1,5-bis(β-carboline-9-yl)pentane]
 |  |  |  |  | 4.6 | > 300 |  | > 300 | > 300 | 19.6 | CC(C)c1nccc2c3ccccc3n(CCCCCCCCCCn3c4ccccc4c4ccnc(C(C)C)c43)c12 [Compound 40, 1,10-bis[1-isopropyl-β-carboline-9-yl) decane]

Structure (SMILES) | IC50 [1] [µM] | IC50 [2] [µM] | IC50 [3] [µM] | IC50 [4] [µM] | IC50 ([5]; 48 hours) [µM] | IC50 ([1]; Homo sapiens) [µM] | IC50 ([2]; Homo sapiens) [µM] | melting point [°C] | IC50 ([3]; Homo sapiens) [µM] | IC50 ([4]; Homo sapiens) [µM] | IC50 ([5]; Homo sapiens, A-375, 48 hours) [µM]
CCOC(=O)c1cc2c3ccccc3n(CCCCCn3c4ccccc4c4cc(C(=O)OCC)nc(-c5cccnc5)c43)c2c(-c2cccnc2)n1 [Compound 29, 1,5-bis[3-ethyoxylcarbonyl-1-(pyridine-3-yl)-β-carboline-9-yl]pentane] | 132 | 15.7 | > 300 | 24.1 | 13 |  |  |  |  |  | 
N.N.[Cl][Pt][Cl] [Cisplatin, reference compound] | 11.6 | 13.1 | 4.2 | 17.3 | 39.2 |  |  |  |  |  | 
CCOC(=O)c1cc2c3ccccc3n(CCCCCCn3c4ccccc4c4cc(C(=O)OCC)nc(-c5cccnc5)c43)c2c(-c2cccnc2)n1 [Compound 30, 1,6-bis[3-ethyoxylcarbonyl-1-(pyridine-3-yl)-β-carboline-9-yl]hexane] | > 300 | > 300 | 68.3 | > 300 | > 300 |  |  |  |  |  | 
CCCCOc1ccc2c3ccnc(C)c3n(CCCCCCn3c4cc(OCCCC)ccc4c4ccnc(C)c43)c2c1 [Compound 24, 1,6-bis(7-n-butoxy-1-methyl-β-carboline-9-yl) hexane] |  |  |  |  |  | 56 | > 300 |  | > 300 | > 300 | > 300
O=[N+]([O-])c1ccc(Cl)c(-c2nccc3c4ccccc4n(CCCCCCCCCn4c5ccccc5c5ccnc(-c6cc([N+](=O)[O-])ccc6Cl)c54)c23)c1 [Compound 38, 1,9-bis[1-(2-chloro-5-nitrophenyl)-β-carboline-9-yl) nonane] |  |  |  |  |  | 1.8 | > 300 |  | > 300 | > 300 | > 300
